From PMC9348805, “Identification of the NRF2 transcriptional network as a therapeutic target for trigeminal neuropathic pain” (Science Advances, 2022)

Target: T1, TRPA1 (Homo sapiens, UniProt O75762)
T1 construct: full-length myc-tagged TRPA1 cDNA (gift of M. Caterina), transiently expressed in HEK-293 cells; Fura-2 calcium imaging
Assay: calcium imaging (Fura-2) of HEK-293 cells transiently expressing TRPA1, with vector and mutant controls
Type: cell-based

T1 sequence (O75762 whole entry): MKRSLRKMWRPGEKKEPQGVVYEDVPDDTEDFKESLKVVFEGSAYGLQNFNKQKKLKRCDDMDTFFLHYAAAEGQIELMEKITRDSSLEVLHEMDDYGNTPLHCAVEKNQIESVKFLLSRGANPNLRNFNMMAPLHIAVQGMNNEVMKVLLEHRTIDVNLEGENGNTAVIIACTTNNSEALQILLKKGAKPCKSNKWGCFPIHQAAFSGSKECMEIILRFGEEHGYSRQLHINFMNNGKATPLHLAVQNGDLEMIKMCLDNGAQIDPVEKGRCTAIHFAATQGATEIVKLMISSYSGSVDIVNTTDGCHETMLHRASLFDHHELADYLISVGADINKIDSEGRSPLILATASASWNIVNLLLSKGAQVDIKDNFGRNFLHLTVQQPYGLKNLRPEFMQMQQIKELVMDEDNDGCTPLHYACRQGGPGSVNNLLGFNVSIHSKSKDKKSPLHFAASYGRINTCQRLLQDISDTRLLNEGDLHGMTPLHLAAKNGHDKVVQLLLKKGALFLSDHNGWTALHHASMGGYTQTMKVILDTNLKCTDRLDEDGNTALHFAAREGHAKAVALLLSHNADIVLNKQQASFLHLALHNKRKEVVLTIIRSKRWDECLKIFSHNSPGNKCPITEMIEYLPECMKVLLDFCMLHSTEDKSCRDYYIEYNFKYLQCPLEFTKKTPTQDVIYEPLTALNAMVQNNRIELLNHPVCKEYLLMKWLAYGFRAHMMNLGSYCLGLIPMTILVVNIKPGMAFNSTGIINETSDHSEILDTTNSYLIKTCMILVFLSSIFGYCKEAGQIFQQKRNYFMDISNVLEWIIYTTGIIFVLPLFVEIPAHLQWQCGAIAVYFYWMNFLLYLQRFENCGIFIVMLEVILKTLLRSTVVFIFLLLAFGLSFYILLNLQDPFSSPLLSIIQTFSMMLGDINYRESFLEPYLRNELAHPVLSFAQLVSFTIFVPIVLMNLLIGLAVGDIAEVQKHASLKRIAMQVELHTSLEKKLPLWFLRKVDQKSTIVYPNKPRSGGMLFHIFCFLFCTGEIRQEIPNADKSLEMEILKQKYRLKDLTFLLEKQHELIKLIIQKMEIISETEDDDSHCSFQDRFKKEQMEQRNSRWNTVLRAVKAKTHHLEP

EC50: 48 µM
SMILES: CCCCCC(O)C=CC=O (stereo not shown) [4-HNE]
